Our source for the IC50 and IC90 values is ChEMBL document CHEMBL4483862, “Open-source discovery of chemical leads for next-generation chemoprotective antimalarials” (2018).

The test system of this assay is Plasmodium berghei. Put plainly: Luciferase/luciferin-expressing antifolate-resistant parasites were used to infect a culture of HepG2 cells that were pre-incubated with compounds. Infected hepatocytes emit light due to the luciferase reaction. Assay results are presented as the percent inhibition of light emission compared to control. […]. The assay is classed as functional. As to conditions: sporozoite; for IC90: read-out: LUCIFERASE INFECTION ASSAY - IC90.

Where [1] appears, read: read-out: LUCIFERASE INFECTION ASSAY - IC50.

For `CC(C)Cn1c(N)c(C(=O)COC(=O)Cn2c(C(F)(F)F)nc3ccccc32)c(=O)n(C)c1=O`, the concentration for an effect of 90% (IC90) (as a rule, the point of the concentration-response curve where the effect stands at 90%) was > 10 µM. Further, under setting [1], the IC50 (commonly the concentration needed to halve the response being measured) is > 10 µM.
Turning to `O=C(COC(=O)C1Cc2ccccc2CN1S(=O)(=O)/C=C/c1ccccc1)c1ccccc1` (configuration not stated), the IC90 was > 10 µM. Under “PBLUC_HILL_SLOPE 0.237, PBLUC_R_SQUARED 0.0458, read-out: LUCIFERASE INFECTION ASSAY - IC50”, the IC50 is > 10 µM.
For `CC(C)(C)c1cc(C(=O)Nc2cccc(Cl)c2)n(Cc2ccc(Cl)cc2Cl)n1`, the IC90 was > 7.56 µM. For the same compound, where the note is “FFLUC_HILL_SLOPE 10.5, FFLUC_R_SQUARED 0.365, read-out: LUCIFERASE INFECTION ASSAY - IC50”, the concentration for half-maximal inhibition (IC50) is > 7.56 µM.
On to `CCC(CNC(=O)NCC(=O)Nc1cc(Cl)ccc1Cl)c1ccccc1` (configuration not stated), for which the IC90 was > 10 µM. Besides, the IC50 (FFLUC_HILL_SLOPE 6.98, FFLUC_R_SQUARED 0.07, read-out: LUCIFERASE INFECTION ASSAY - IC50) is > 10 µM.
As for `CCOC(=O)c1cnn(-c2ccc(Cc3ccc(-n4ncc(C(=O)OCC)c4C)cc3)cc2)c1C`, the concentration for an effect of 90% (IC90) is > 6.98 µM. Besides, the IC50 (PBLUC_HILL_SLOPE 1.32, PBLUC_R_SQUARED 0.439, read-out: LUCIFERASE INFECTION ASSAY - IC50) is 2.06 µM.
As to `COc1ccc(-c2csc3ncnc(NCC4(N5CCOCC5)CCCCC4)c23)cc1`, the IC90 turned out to be 9.48 µM. Further, where the note is “PBLUC_HILL_SLOPE 4.26, PBLUC_R_SQUARED 0.161, read-out: LUCIFERASE INFECTION ASSAY - IC50”, the IC50 is 5.66 µM.
With `COc1ccc(-c2cc3ncnc(NCc4ccc(S(=O)(=O)N5CCCC5)s4)c3s2)cc1`, the concentration for an effect of 90% (IC90) came to 4.46 µM. Besides, the IC50 under setting [1] came out at 3.52 µM.
On the same counts, the results for `CN1c2ccsc2C(=O)/C(=C\Nc2ccccc2Cl)S1(=O)=O` are > 9.3 µM and > 9.3 µM.
For the compound `CCc1nnc(S)n1/N=C/c1c(C)nn(-c2ccccc2)c1Cl`, the IC90 was 0.704 µM. Moreover, the IC50 (HEPG2TOX_HILL_SLOPE 1.03, HEPG2TOX_R_SQUARED 0.933, PBLUC_HILL_SLOPE 1.45, PBLUC_R_SQUARED 0.745, read-out: LUCIFERASE INFECTION ASSAY - IC50) was 0.155 µM.
In the case of `Cc1sc2nc(CSc3ccc([N+](=O)[O-])c(C(F)(F)F)c3)nc(O)c2c1C`, the concentration for an effect of 90% (IC90) worked out at 8.65 µM. Further, the IC50 (HEPG2TOX_HILL_SLOPE 3.24, HEPG2TOX_R_SQUARED 0.988, PBLUC_HILL_SLOPE 5.99, PBLUC_R_SQUARED 0.334, read-out: LUCIFERASE INFECTION ASSAY - IC50) is 5.99 µM.
As to `Cc1c(Sc2ccccc2[N+](=O)[O-])c2ccccn2c1C(=O)c1ccc(Br)cc1`, the IC90 was > 10 µM. Also, the half-inhibitory concentration (IC50) (FFLUC_HILL_SLOPE 12.7, FFLUC_R_SQUARED 0.226, PBLUC_HILL_SLOPE 11.1, PBLUC_R_SQUARED 0.312, read-out: LUCIFERASE INFECTION ASSAY - IC50) was 9.73 µM.
In the case of `O=C(Nc1nc2ccccn2c1C(=O)NC1CCCC1)c1ccc(F)cc1F`, the IC90 came out at 3.49 µM. Under setting [1], the IC50 was 2.94 µM.
Take `COC(=O)c1ccc(C(=O)Nc2nc3ccc(C)cn3c2C(=O)NC2CCCCC2)cc1`: the IC90 was > 7.6 µM. The IC50 (HEPG2TOX_HILL_SLOPE 6.71, HEPG2TOX_R_SQUARED 0.117, PBLUC_HILL_SLOPE 12.8, PBLUC_R_SQUARED 0.0177, read-out: LUCIFERASE INFECTION ASSAY - IC50) was determined as 7.03 µM.
For `Cc1ccc(C(=O)C(c2ccc(C)cc2)N2C(=O)NC(C)(c3ccccc3)C2=O)cc1` (configuration not stated), the IC90 is > 10 µM. Further, the concentration for half-maximal inhibition (IC50) (FFLUC_HILL_SLOPE 10.4, FFLUC_R_SQUARED 0.468, read-out: LUCIFERASE INFECTION ASSAY - IC50) was > 10 µM.
With `c1cncc(-c2cn3c(-c4ccsc4)cnc3cn2)c1`, the IC90 is > 11.9 µM. The IC50 under setting [1] is > 11.9 µM.
Regarding `CCC(=O)c1cc(Br)ccc1OC(=O)Cc1coc2cc(C)c(C)cc12`, the IC90 was 8.33 µM. For the same compound, the IC50 (FFLUC_HILL_SLOPE 11.7, FFLUC_R_SQUARED 0.164, HEPG2TOX_HILL_SLOPE 5.81, HEPG2TOX_R_SQUARED 0.234, PBLUC_HILL_SLOPE 5.23, PBLUC_R_SQUARED 0.568, read-out: LUCIFERASE INFECTION ASSAY - IC50) came out at 5.48 µM.
For the compound `COc1cccc(-c2ccc3ncc(-c4cccc(C(=O)NCCN(C)C)c4)n3n2)c1`, the IC90 stood at 4.07 µM. In addition, the IC50 under setting [1] was determined as 1.69 µM.
In the case of `Cc1ccc2c(Cl)cc(Cl)c(OC(=O)C3CC3)c2n1`, the IC90 is 6.06 µM. Besides, for the setting “HEPG2TOX_HILL_SLOPE 1.04, HEPG2TOX_R_SQUARED 0.959, PBLUC_HILL_SLOPE 1.84, PBLUC_R_SQUARED 0.861, read-out: LUCIFERASE INFECTION ASSAY - IC50”, the IC50 worked out at 1.84 µM.
Turning to `O=C(Nc1ccc(Oc2ccc(C(F)(F)F)cn2)c(Cl)c1)C1CC1`, the IC90 was 4.36 µM. For the same compound, the IC50 (PBLUC_HILL_SLOPE 2.75, PBLUC_R_SQUARED 0.594, read-out: LUCIFERASE INFECTION ASSAY - IC50) is 1.96 µM.
Turning to `COc1cc(NC(=O)Cc2c(F)cccc2Cl)cc(OC)c1OC`, the IC90 was > 10 µM. The IC50 under setting [1] is > 10 µM.
`CC1(C)CC(=O)C=C(Sc2nc3cc(Cl)ccc3s2)C1`: the IC90 was > 10.2 µM. Also, the IC50 under setting [1] is > 10.2 µM.
Consider `COc1ccc(-c2nc(NC(=O)c3cnc(C)cn3)sc2C)cc1`, for which the IC90 is > 10 µM. In addition, the IC50 under setting [1] is > 10 µM.
Consider `Cc1cc2ccccn2c1C(=O)c1cc2c(C)nn(-c3ccccc3)c2s1`, for which the IC90 was > 10 µM. Also, the IC50 under setting [1] was > 10 µM.
On to `O=S(=O)(Nc1csc(C(F)(F)F)c1-c1ccccc1)c1cc(Cl)c(Cl)s1`, for which the 90% effect concentration (IC90) is 6.91 µM. Moreover, the IC50 (FFLUC_HILL_SLOPE 1.1, FFLUC_R_SQUARED 0.492, HEPG2TOX_HILL_SLOPE 2.51, HEPG2TOX_R_SQUARED 0.937, PBLUC_HILL_SLOPE 4.37, PBLUC_R_SQUARED 0.518, read-out: LUCIFERASE INFECTION ASSAY - IC50) was found to be 4.18 µM.
On to `COc1ccc(C(CNC(=O)c2ccccc2-c2ncc(-c3ccccc3)o2)N(C)C)cc1` (configuration not stated), for which the IC90 is > 10 µM. Besides, the IC50 (PBLUC_HILL_SLOPE 2.7, PBLUC_R_SQUARED 0.455, read-out: LUCIFERASE INFECTION ASSAY - IC50) is 5.19 µM.
Consider `O=[N+]([O-])c1cccc(-c2csc(CS(=O)(=O)c3cccs3)n2)c1`, for which the IC90 was > 9.01 µM. Besides, the IC50 under setting [1] is > 9.01 µM.
With `CC(C)NC(=O)c1c(NC(=O)c2cc(F)ccc2F)nc2ccccn12`, the IC90 is > 9.21 µM. Besides, under “PBLUC_HILL_SLOPE 2.78, PBLUC_R_SQUARED 0.497, read-out: LUCIFERASE INFECTION ASSAY - IC50”, the IC50 stood at 6.02 µM.
Regarding `CCC1CCc2sc(C(=O)NNC(=O)c3cnccn3)cc2C1` (configuration not stated), the IC90 was > 10 µM. Moreover, the IC50 (HEPG2TOX_HILL_SLOPE 2.38, HEPG2TOX_R_SQUARED 0.712, PBLUC_HILL_SLOPE 3.73, PBLUC_R_SQUARED 0.532, read-out: LUCIFERASE INFECTION ASSAY - IC50) came to 6.76 µM.
As for `COc1ccc(Nc2nnc(SCc3cn4c(C)cccc4n3)s2)cc1`, the 90% effect concentration (IC90) is 3.76 µM. Also, under “HEPG2TOX_HILL_SLOPE 1.62, HEPG2TOX_R_SQUARED 0.963, PBLUC_HILL_SLOPE 37.7, PBLUC_R_SQUARED 0.0792, read-out: LUCIFERASE INFECTION ASSAY - IC50”, the concentration for half-maximal inhibition (IC50) worked out at 3.55 µM.
As for `Cc1ccc(C2(c3ccccc3)NC(=O)N(CC(=O)c3ccc(Br)s3)C2=O)cc1C` (configuration not stated), the IC90 was determined as 3.91 µM. The IC50 (FFLUC_HILL_SLOPE 2.42, FFLUC_R_SQUARED 0.19, PBLUC_HILL_SLOPE 12.8, PBLUC_R_SQUARED 0.482, read-out: LUCIFERASE INFECTION ASSAY - IC50) was 3.29 µM.
Take `CC(C)(C)c1csc(NC(=O)C2CCCN2S(=O)(=O)c2ccc(Br)s2)n1` (configuration not stated): the IC90 is > 10 µM. Further, for the setting “PBLUC_HILL_SLOPE 9.23, PBLUC_R_SQUARED 0.508, read-out: LUCIFERASE INFECTION ASSAY - IC50”, the IC50 is 9.84 µM.
As to `COc1ccc(-c2cnc3ccc(NCc4ccccn4)nn23)cc1OC`, the IC90 came out at 5.88 µM. The IC50 (HEPG2TOX_HILL_SLOPE 0.427, HEPG2TOX_R_SQUARED 0.871, PBLUC_HILL_SLOPE 2.47, PBLUC_R_SQUARED 0.694, read-out: LUCIFERASE INFECTION ASSAY - IC50) stood at 2.41 µM.
Turning to `COc1cc2c(cc1OC)C(c1cccs1)N(Cc1cc(-c3ccco3)on1)CC2` (configuration not stated), the IC90 was > 10 µM. The IC50 (HEPG2TOX_HILL_SLOPE 7.23, HEPG2TOX_R_SQUARED 0.683, PBLUC_HILL_SLOPE 1.88, PBLUC_R_SQUARED 0.215, read-out: LUCIFERASE INFECTION ASSAY - IC50) came out at 9.72 µM.
`Cc1nc(-c2ccsc2)sc1C(=O)Nc1nc(-c2ccc(NS(C)(=O)=O)cc2)cs1`: the IC90 worked out at 8.82 µM. For the same compound, under setting [1], the IC50 was found to be 5.84 µM.
With `CC(=O)C1=NN(c2ccccc2)C(c2ccccc2OCc2ccccc2)N1c1ccc(N2CCOCC2)cc1` (configuration not stated), the IC90 was > 10 µM. Further, the IC50 (FFLUC_HILL_SLOPE 2.34, FFLUC_R_SQUARED 0.456, PBLUC_HILL_SLOPE 2.53, PBLUC_R_SQUARED 0.447, read-out: LUCIFERASE INFECTION ASSAY - IC50) amounted to 9.41 µM.
Take `C#CCSc1nc2ccc(Cl)cc2c(=O)n1-c1cc(OC(C)C)c(Cl)cc1Cl`: the IC90 is > 7.27 µM. Moreover, the 50% inhibitory concentration (IC50) (FFLUC_HILL_SLOPE 5.89, FFLUC_R_SQUARED 0.859, HEPG2TOX_HILL_SLOPE 0.407, HEPG2TOX_R_SQUARED 0.572, PBLUC_HILL_SLOPE 3.96, PBLUC_R_SQUARED 0.341, read-out: LUCIFERASE INFECTION ASSAY - IC50) stood at 5.27 µM.
